27 molecules from patent US9210927B2, “Pesticidal compositions and processes related thereto” (Dow AgroSciences LLC, priority 2013, dated 2015) can be followed below.

The structures appear in SMILES notation. Like-named read-outs stand apart in the source and are kept apart here.

The subject of one data set is GPA (Myzus persicae). Briefly: Bioassays on Green Peach Aphid (GPA), foliar spray on cabbage seedlings. Format: in vivo. The conditions noted are these: 72 h, corrected % control (Abbott), 200 ppm spray on cabbage seedlings, three days, read-out: GPA Rating. In a few lines: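 Activity given as Abbott-corrected % control, from live aphid counts versus solvent-only plants three days after treatment at about 25° C. Compounds were applied at 200 ppm (acetone/MeOH diluted in 0.025% aqueous Tween 20) as a runoff spray on aphid-infested cabbage seedlings, four replicates each.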

The subject of a further data set is BAW (Spodoptera exigua). Briefly: Bioassays on Beet Armyworm (BAW), 128-well diet tray assay. The class given is in vivo. Particulars: Spodoptera exigua, 168 h, read-out: BAW Rating. In a few lines:
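Diet surface dosed at 50 μg/cm^2 (acetone-water 90:10 vehicle), dried, then infested with second-instar larvae, one to five per well. After five to seven days at 25° C. under 14:10 light-dark, mortality per well was scored and averaged over eight wells.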

In a further data set the test system is CEW (Helicoverpa zea). Briefly: Bioassays on Corn Earworm (CEW), 128-well diet tray assay. The conditions noted are these: Helicoverpa zea, 168 h; percent mortality, second instar larvae, 50 μg/cm^2 on artificial diet, five to seven days, 25° C.; read-out: CEW Rating. Format: in vivo. In a few lines:
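Percent larval mortality, averaged across eight wells, read after five to seven days at 25 °C under 14:10 light-dark. Each well held one to five second-instar larvae on diet surface-dosed at 50 μg/cm^2 (compound applied in acetone-water 90:10, then dried).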

In a further data set the test system is CL (Trichoplusia ni). Briefly: Bioassays on Cabbage Looper (CL), 128-well diet tray assay. Format: in vivo. The conditions noted are these: 168 h, percent mortality, second instar larvae, 50 μg/cm^2 on artificial diet, five to seven days, 25° C., read-out: CL Rating. On the procedure: Bioassays on Beet Armyworm (“BAW”) and Corn Earworm (“CEW”) and Cabbage Looper (“CL”)
Certain molecules disclosed in this document were tested against BAW and CEW and CL using procedures described in the following examples. In the reporting of the results, the “BAW & CEW & CL Rating Table” was used (See Table Section).
Bioassays on CL (Trichoplusia ni)
Bioassays on CL were conducted using a 128-well diet tray assay. One to five second instar CL larvae were placed in each well (3 mL) of the diet tray that had been previously filled with 1 mL of artificial diet to which 50 μg/cm^2 of the test compound (dissolved in 50 μL of 90:10 acetone-water mixture) had been applied (to each of eight wells) and then allowed to dry. Trays were covered with a clear self-adhesive cover, and held at 25° C., 14:10 light-dark for five to seven days. Percent mortality was recorded for the larvae in each well; activity in the eight wells was then averaged. The results are indicated in the table entitled “Table 3A: Assay Results” (See Table Section).

Setting [1] is: percent mortality, second instar larvae, 50 μg/cm^2 on artificial diet, five to seven days, 25° C.

For orientation: melting point means the temperature, or range, at which the solid turns liquid.

For `NC(=O)c1ccc(/C=C/C(c2cc(Cl)cc(Cl)c2)C(F)(F)F)cc1` (stereo not drawn) [AC2], the melting point lay within 110 to 112 °C.
For the molecule `O=C(NCc1ccc(/C=C/C(c2cc(Cl)c(F)c(Cl)c2)C(F)(F)F)cc1Cl)C1CC1` (stereo not drawn) [CC15], the pest or weed control at 200 ppm with GPA (Myzus persicae) was 0 to 80%. The pest or weed control at 50 µg/cm2 in the data set on BAW (Spodoptera exigua) and with CEW (Helicoverpa zea) was 50 to 100% each time.
Consider `O=C(NCc1ccc(/C=C/C(c2ccc(Cl)c(Cl)c2)C(F)(F)F)cc1Cl)C1CC1` (stereo not drawn) [CC17], for which the pest or weed control at 200 ppm with GPA (Myzus persicae) fell in the range of 0 to 80%. The pest or weed control at 50 µg/cm2 in the data set with BAW (Spodoptera exigua) and in the data set on CEW (Helicoverpa zea) was 50 to 100% in each case.
With `O=C(CC(F)(F)F)NCc1ccc(/C=C/C(c2ccc(Cl)c(Cl)c2)C(F)(F)F)cc1Cl` (stereo not drawn) [CC18], in the data set with GPA (Myzus persicae), the pest or weed control at 200 ppm was in the range of 0 to 80%. Also, the pest or weed control at 50 µg/cm2 in the data set on BAW (Spodoptera exigua) and in the data set with CEW (Helicoverpa zea) was 50 to 100% in each case.
As to `CSCCC(=O)NCc1ccc(/C=C/C(c2cc(Cl)c(Cl)c(Cl)c2)C(F)(F)F)cc1Cl` (stereo not drawn) [CC19], the pest or weed control at 200 ppm in the data set on GPA (Myzus persicae) is 0 to 80%. The pest or weed control at 50 µg/cm2 with BAW (Spodoptera exigua) and with CEW (Helicoverpa zea) was 50 to 100% throughout.
`O=C(NCc1ccc(/C=C/C(c2cc(Cl)c(Cl)c(Cl)c2)C(F)(F)F)cc1C(F)(F)F)C1CC1` (stereo not drawn) [CC22]: in the data set with GPA (Myzus persicae), the pest or weed control at 200 ppm lay in the range of 0 to 80%. Besides, the pest or weed control at 50 µg/cm2 in the data set on BAW (Spodoptera exigua) and in the data set on CEW (Helicoverpa zea) was 50 to 100% in each case.
Regarding `O=C(NCc1ccc(/C=C/C(c2cc(Cl)c(Cl)c(Cl)c2)C(F)(F)F)cc1C(F)(F)F)c1cccnc1` (stereo not drawn) [CC23], the pest or weed control at 200 ppm in the data set with GPA (Myzus persicae) lay in the range of 0 to 80%. For the same molecule, the pest or weed control at 50 µg/cm2 with BAW (Spodoptera exigua) and in the data set on CEW (Helicoverpa zea) was 50 to 100% in each case.
With `O=C(CC(F)(F)F)NCc1ccc(/C=C/C(c2cc(Cl)c(Cl)c(Cl)c2)C(F)(F)F)cc1Br` (stereo not drawn) [CC25], in the data set on GPA (Myzus persicae), the pest or weed control at 200 ppm was in the range of 0 to 80%. The pest or weed control at 50 µg/cm2 in the data set on BAW (Spodoptera exigua) and in the data set with CEW (Helicoverpa zea) was 50 to 100% each time.
Turning to `O=C(C1CC1)N(Cc1ccccn1)Cc1ccc(/C=C/C(c2cc(Cl)c(Cl)c(Cl)c2)C(F)(F)F)cc1C(F)(F)F` (stereo not drawn) [CC29, (E)-N-(Pyridin-2-ylmethyl)-N-(4-(4,4,4-trifluoro-3-(3,4,5-trichlorophenyl)but-1-enyl)-2-(trifluoromethyl)benzyl)cyclopropanecarboxamide], the pest or weed control at 200 ppm in the data set with GPA (Myzus persicae) lay within 0 to 80%. Also, the pest or weed control at 50 µg/cm2 in the data set on BAW (Spodoptera exigua) and in the data set with CEW (Helicoverpa zea) was 50 to 100% in each case.
`CCNC(=O)NCc1ccc(/C=C/C(c2cc(Cl)c(Cl)c(Cl)c2)C(F)(F)F)cc1C(F)(F)F` (stereo not drawn) [CC32]: the pest or weed control at 200 ppm in the data set on GPA (Myzus persicae) lay within 0 to 80%. The pest or weed control at 50 µg/cm2 with BAW (Spodoptera exigua) and in the data set with CEW (Helicoverpa zea) was 50 to 100% each time.
Consider `CCNC(=O)NCc1ccc(/C=C/C(c2cc(Cl)c(Cl)c(Cl)c2)C(F)(F)F)cc1Br` (stereo not drawn) [CC33], for which the pest or weed control at 200 ppm in the data set on GPA (Myzus persicae) is 0 to 80%. Also, the pest or weed control at 50 µg/cm2 in the data set on BAW (Spodoptera exigua) and in the data set with CEW (Helicoverpa zea) was 50 to 100% each time.
For the molecule `O=C(NCc1ccc(/C=C/C(c2cc(Cl)c(Cl)c(Cl)c2)C(F)(F)F)cc1Cl)N1CCOCC1` (stereo not drawn) [CC34], the pest or weed control at 200 ppm in the data set on GPA (Myzus persicae) lay in the range of 0 to 80%. Moreover, the pest or weed control at 50 µg/cm2 in the data set on BAW (Spodoptera exigua) and in the data set on CEW (Helicoverpa zea) was 50 to 100% throughout.
`FC(F)(F)C(/C=C/c1ccc(CNc2ccccn2)c(Cl)c1)c1cc(Cl)c(Cl)c(Cl)c1` (stereo not drawn) [CC43, (E)-N-(2-Chloro-4-(4,4,4-trifluoro-3-(3,4,5-trichlorophenyl)but-1-en-1-yl)benzyl)pyridin-2-amine]: the pest or weed control at 200 ppm in the data set on GPA (Myzus persicae) fell in the range of 0 to 80%. For the same molecule, the pest or weed control at 50 µg/cm2 fell in the range of 50 to 100% with BAW (Spodoptera exigua) and 0 to 50% in the data set on CEW (Helicoverpa zea).
For `O=C(CC(F)(F)F)NCc1ncc(/C=C/C(c2cc(Cl)c(Cl)c(Cl)c2)C(F)(F)F)cc1Cl` (stereo not drawn) [CC44, (E)-N-((3-Chloro-5-(4,4,4-trifluoro-3-(3,4,5-trichlorophenyl)-but-1-en-1-yl)pyridin-2-yl)methyl)-3,3,3-trifluoropropanamide], in the data set on GPA (Myzus persicae), the pest or weed control at 200 ppm was 0 to 80%. The pest or weed control at 50 µg/cm2 in the data set on BAW (Spodoptera exigua) and in the data set with CEW (Helicoverpa zea) was 50 to 100% throughout.
As to `CCNC(=O)N(C)NC(=O)c1ccc(/C=C/C(c2cc(Cl)c(Cl)c(Cl)c2)C(F)(F)F)cc1Br` (stereo not drawn) [Compound F1, (E)-2-(2-Bromo-4-(4,4,4-trifluoro-3-(3,4,5-trichlorophenyl)but-1-en-1-yl)benzoyl)-N-ethyl-1-methylhydrazinecarboxamide], the pest or weed control at 50 µg/cm2 in the data set on CL (Trichoplusia ni) and in the data set on BAW (Spodoptera exigua) (setting [1]) was 50 to 100% each time.
Regarding `O=C(NCC(F)(F)F)NNC(=O)c1ccc(/C=C/C(c2cc(Cl)c(Cl)c(Cl)c2)C(F)(F)F)cc1Br` (stereo not drawn) [Compound F7, (E)-2-(2-Bromo-4-(4,4,4-trifluoro-3-(3,4,5-trichlorophenyl)but-1-en-1-yl)benzoyl)-N-(2,2,2-trifluoroethyl)hydrazinecarboxamide], the pest or weed control at 50 µg/cm2 with CL (Trichoplusia ni) and in the data set on BAW (Spodoptera exigua) (setting [1]) was 50 to 100% throughout.
Turning to `FC(F)(F)C(/C=C/c1ccc(-n2cncn2)cc1)c1ccc(Cl)c(Cl)c1` (stereo not drawn) [DC12], the pest or weed control at 200 ppm in the data set with GPA (Myzus persicae) lay within 0 to 80%. Also, the pest or weed control at 50 µg/cm2 in the data set on BAW (Spodoptera exigua) and with CEW (Helicoverpa zea) was 50 to 100% throughout.
As for `COc1c(Cl)cc(C(/C=C/c2ccc(-n3cncn3)c(C#N)c2)C(F)(F)F)cc1Cl` (stereo not drawn) [DC34], the pest or weed control at 200 ppm in the data set with GPA (Myzus persicae) fell in the range of 0 to 80%. Also, the pest or weed control at 50 µg/cm2 in the data set with BAW (Spodoptera exigua) and in the data set with CEW (Helicoverpa zea) was 50 to 100% in each case.
On to `N#Cc1cc(/C=C/C(c2cc(Cl)c(F)c(Cl)c2)C(F)(F)F)ccc1-n1cncn1` (stereo not drawn) [DC35], for which, in the data set on GPA (Myzus persicae), the pest or weed control at 200 ppm lay in the range of 0 to 80%. In addition, the pest or weed control at 50 µg/cm2 in the data set on BAW (Spodoptera exigua) and in the data set with CEW (Helicoverpa zea) was 50 to 100% each time.
Turning to `CN(NC(=O)c1ccc(/C=C/C(c2cc(Cl)c(Cl)c(Cl)c2)C(F)(F)F)cc1Br)C(=O)NCC(F)(F)F` (stereo not drawn) [FA1], the pest or weed control at 50 µg/cm2 in the data set on CL (Trichoplusia ni) and in the data set with BAW (Spodoptera exigua) (setting [1]) was 50 to 100% in each case.
For `CN(NC(=O)c1ccc(/C=C/C(c2cc(Cl)c(Cl)c(Cl)c2)C(F)(F)F)cc1C(F)(F)F)C(=O)NCC(F)(F)F` (stereo not drawn) [FA2], the pest or weed control at 50 µg/cm2 in the data set on CL (Trichoplusia ni) and in the data set on BAW (Spodoptera exigua) (setting [1]) was 50 to 100% in each case.
For `CN(NC(=O)c1ccc(/C=C/C(c2cc(Br)cc(Br)c2)C(F)(F)F)cc1C(F)(F)F)C(=O)NCC(F)(F)F` (stereo not drawn) [FA4], the pest or weed control at 50 µg/cm2 with CL (Trichoplusia ni) and in the data set with BAW (Spodoptera exigua) (setting [1]) was 50 to 100% throughout.
As to `CN(NC(=O)c1ccc(/C=C/C(c2cc(Br)c(Cl)c(Br)c2)C(F)(F)F)cc1C(F)(F)F)C(=O)NCC(F)(F)F` (stereo not drawn) [FA5], the pest or weed control at 50 µg/cm2 in the data set on CL (Trichoplusia ni) and in the data set with BAW (Spodoptera exigua) (setting [1]) was 50 to 100% in each case.
For `CN(NC(=O)c1ccc(/C=C/C(c2cc(Cl)c(Br)c(Cl)c2)C(F)(F)F)cc1C(F)(F)F)C(=O)NCC(F)(F)F` (stereo not drawn) [FA6], the pest or weed control at 50 µg/cm2 in the data set with CL (Trichoplusia ni) and in the data set on BAW (Spodoptera exigua) (setting [1]) was 50 to 100% throughout.
As for `CN(NC(=O)c1ccc(/C=C/C(c2cc(Cl)c(F)c(Cl)c2)C(F)(F)F)cc1C(F)(F)F)C(=O)NCC(F)(F)F` (stereo not drawn) [FA7], the pest or weed control at 50 µg/cm2 in the data set on CL (Trichoplusia ni) and in the data set with BAW (Spodoptera exigua) (setting [1]) was 50 to 100% each time.
Consider `CN(NC(=O)c1ccc(/C=C/C(c2cc(Cl)c(Cl)c(Cl)c2)C(F)(F)F)cc1C(F)(F)F)C(=O)NCC(F)F` (stereo not drawn) [FA8], for which the pest or weed control at 50 µg/cm2 in the data set with CL (Trichoplusia ni) and in the data set on BAW (Spodoptera exigua) (setting [1]) was 50 to 100% in each case.
For `CN(NC(=O)c1ccc(/C=C/C(c2cc(Cl)c(Cl)c(Cl)c2)C(F)(F)F)cc1C(F)(F)F)C(=O)NCCC(F)(F)F` (stereo not drawn) [FA9], the pest or weed control at 50 µg/cm2 in the data set on CL (Trichoplusia ni) and in the data set with BAW (Spodoptera exigua) (setting [1]) was 50 to 100% in each case.
